Measured values taken from patent US11725036B2, “Modified lipidated relaxin B chain peptides and their therapeutic use” (Sanofi, priority 2018, dated 2023).
Starred links: 1 amine or outer side, 2 acyl side, 3 side chain; linkers in the order of their positions; H or OH if unused. Non-standard residues stand in square brackets, D forms with d. Residues, ends and D or L forms follow the SMILES beside them. Groups on a side chain read outwards from the residue. *: point of attachment. X12 = CCCCCCCCCCCCCCCCCC(=O)N[C@@H](CCC(=O)N[C@@H](CCC(=O)N[C@@H](CCC(=O)N[C@@H](CCC(=O)NCCCOCCOCCOCCCNC(=O)CCC(=O)NCCCOCCOCCOCCCNC(=O)CCC(=O)NCCCOCCOCCOCCCNC(=O)CCC(=O)NCCCOCCOCCOCCCN*)C(=O)O)C(=O)O)C(=O)O)C(=O)O; X16 = CCCCCCCCCCCCCCCCCC(=O)N[C@@H](CCC(=O)N[C@@H](CCC(=O)N[C@@H](CCC(=O)NCCCOCCOCCOCCCNC(=O)CCC(=O)NCCCOCCOCCOCCCNC(=O)CCC(=O)NCCCOCCOCCOCCCNC(=O)CCC(=O)NCCCOCCOCCOCCCN*)C(=O)O)C(=O)O)C(=O)O; X13 = CCCCCCCCCCCCCCCC(=O)N[C@@H](CCC(=O)N[C@@H](CCC(=O)N[C@@H](CCC(=O)N[C@@H](CCC(=O)NCCCOCCOCCOCCCNC(=O)CCC(=O)NCCCOCCOCCOCCCNC(=O)CCC(=O)NCCCOCCOCCOCCCN*)C(=O)O)C(=O)O)C(=O)O)C(=O)O; X15 = CCCCCCCCCCCCCCCCCC(=O)N[C@@H](CCC(=O)N[C@@H](CCC(=O)N[C@@H](CCC(=O)NCCCOCCOCCOCCCNC(=O)COCC(=O)NCCCOCCOCCOCCCNC(=O)COCC(=O)NCCCOCCOCCOCCCNC(=O)COCC(=O)*)C(=O)O)C(=O)O)C(=O)O; X1 = CCCCCCCCCCCCCCCC(=O)N[C@@H](CCC(=O)N[C@@H](CCC(=O)N[C@@H](CCC(=O)NCCCOCCOCCOCCCNC(=O)CCC(=O)NCCCOCCOCCOCCCNC(=O)CCC(=O)NCCCOCCOCCOCCCN*)C(=O)O)C(=O)O)C(=O)O; Suc = O=C(CCC(=O)[*:2])[*:1]; αMeK = C[C@](N)(CCCCN)C(=O)O; hLys = NCCCCC[C@H](N)C(=O)O; Aib = CC(C)(N)C(=O)O

Target: T1, RXFP1 (Homo sapiens, UniProt Q9HBX9)
T1 construct: OVCAR5 cells expressing endogenous RXFP1; endogenous in cells; host or cells: OVCAR5
T1 sequence (Q9HBX9 1-757): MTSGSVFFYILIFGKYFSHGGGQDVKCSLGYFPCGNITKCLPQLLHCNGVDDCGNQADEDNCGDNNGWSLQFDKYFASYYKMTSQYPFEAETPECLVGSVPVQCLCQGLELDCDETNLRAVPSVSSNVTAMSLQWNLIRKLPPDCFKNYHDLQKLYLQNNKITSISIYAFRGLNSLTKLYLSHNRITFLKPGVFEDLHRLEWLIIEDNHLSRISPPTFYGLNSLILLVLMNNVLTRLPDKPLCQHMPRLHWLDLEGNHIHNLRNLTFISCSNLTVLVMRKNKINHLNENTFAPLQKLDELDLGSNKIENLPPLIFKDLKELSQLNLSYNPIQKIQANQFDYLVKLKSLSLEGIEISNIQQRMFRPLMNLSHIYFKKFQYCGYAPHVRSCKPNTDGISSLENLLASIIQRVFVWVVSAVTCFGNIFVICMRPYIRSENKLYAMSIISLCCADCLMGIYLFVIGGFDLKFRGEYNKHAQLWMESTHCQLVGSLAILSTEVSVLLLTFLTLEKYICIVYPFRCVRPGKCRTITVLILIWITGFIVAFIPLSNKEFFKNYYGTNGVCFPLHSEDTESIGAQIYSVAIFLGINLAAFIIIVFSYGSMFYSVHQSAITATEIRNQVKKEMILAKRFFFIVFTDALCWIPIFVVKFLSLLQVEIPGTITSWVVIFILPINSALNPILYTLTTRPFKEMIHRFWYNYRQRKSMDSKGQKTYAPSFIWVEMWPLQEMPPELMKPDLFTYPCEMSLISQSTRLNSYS
Test: OVCAR5 cAMP assay (HTRF)
Format: cell-based
Conditions: for EC50: OVCAR 5 cells expressing endogenous RXFP1, cAMP readout; for Emax: OVCAR 5 cells, maximal cAMP relative to H2-relaxin
In short: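 Peptide agonism measured as intracellular cAMP (HTRF) after 30 min at 37° C in serum-free medium, following 40 min 1 mM IBMX preincubation of OVCAR5 cells. Nonlinear regression gave EC50; Emax % = 100 × compound maximal cAMP / H2-relaxin maximal cAMP.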

Row | EC50 [nM] | Emax [%] | SMILES
1 | 0.1 | 97 | CCCCCCCCCCCCCCCCCC(=O)N[C@@H](CCC(=O)N[C@@H](CCC(=O)N[C@@H](CCC(=O)NCCCOCCOCCOCCCNC(=O)COCC(=O)NCCCOCCOCCOCCCNC(=O)COCC(=O)NCCCOCCOCCOCCCNC(=O)COCC(=O)NCCCC[C@H](NC(=O)CNC(=O)[C@H](CCC(=O)O)NC(=O)C(C)(C)NC(=O)C(C)(C)NC(=O)[C@@H](NC(=O)[C@H](CCCCNC(C)=O)NC(=O)[C@H](C)NC(=O)[C@H](CCCNC(=N)N)NC(=O)[C@@H](NC(=O)[C@H](CCCCN)NC(=O)[C@H](CCC(=O)O)NC(=O)[C@H](CCCNC(=N)N)NC(=O)CNC(=O)[C@H](CCC(=O)O)NC(=O)[C@H](CC(C)C)NC(C)=O)C(C)C)[C@@H](C)CC)C(=O)N[C@@H](CO)C(=O)N[C@H](C(=O)N[C@@H](Cc1ccccc1)C(=O)N[C@@H](CO)C(=O)N[C@@](C)(CCCCN)C(=O)N[C@@H](CCCNC(=N)N)C(=O)N[C@@H](C)C(=O)N[C@@H](CCCCNC(C)=O)C(N)=O)[C@@H](C)O)C(=O)O)C(=O)O)C(=O)O [compound 32] (Ac-LEGREKVRAK(Ac)I[Aib][Aib]EGK(X15)STFS[αMeK]RAK(Ac)-NH2)
2 | 0.17 | 96 | CCCCCCCCCCCCCCCC(=O)N[C@@H](CCC(=O)N[C@@H](CCC(=O)N[C@@H](CCC(=O)NCCCOCCOCCOCCCNC(=O)CCC(=O)NCCCOCCOCCOCCCNC(=O)CCC(=O)NCCCOCCOCCOCCCNC(=O)CCC(=O)NCCCC[C@H](NC(=O)CNC(=O)[C@H](CCC(=O)O)NC(=O)C(C)(C)NC(=O)C(C)(C)NC(=O)[C@@H](NC(=O)[C@H](CCCCNC(C)=O)NC(=O)[C@H](C)NC(=O)[C@H](CCCNC(=N)N)NC(=O)[C@@H](NC(=O)[C@H](CCCCN)NC(=O)[C@H](CCC(=O)O)NC(=O)[C@H](CCCNC(=N)N)NC(=O)CNC(=O)[C@H](CCC(=O)O)NC(=O)[C@H](CC(C)C)NC(C)=O)C(C)C)[C@@H](C)CC)C(=O)N[C@@H](CO)C(=O)N[C@H](C(=O)N[C@@H](Cc1ccccc1)C(=O)N[C@@H](CO)C(=O)N[C@@H](CCCCCN)C(=O)N[C@@H](CCCNC(=N)N)C(=O)N[C@@H](C)C(=O)N[C@@H](CCCCNC(C)=O)C(N)=O)[C@@H](C)O)C(=O)O)C(=O)O)C(=O)O [compound 88] (Ac-LEGREKVRAK(Ac)I[Aib][Aib]EGK([Suc-X1])STFS[hLys]RAK(Ac)-NH2)
3 |  | 99 | CCCCCCCCCCCCCCCCCC(=O)N[C@@H](CCC(=O)N[C@@H](CCC(=O)N[C@@H](CCC(=O)N[C@@H](CCC(=O)NCCCOCCOCCOCCCNC(=O)CCC(=O)NCCCOCCOCCOCCCNC(=O)CCC(=O)NCCCOCCOCCOCCCNC(=O)CCC(=O)NCCCOCCOCCOCCCNC(=O)CCC(=O)NCCCC[C@H](NC(=O)CNC(=O)[C@H](CCC(=O)O)NC(=O)C(C)(C)NC(=O)C(C)(C)NC(=O)[C@@H](NC(=O)[C@H](CCCCNC(C)=O)NC(=O)[C@H](C)NC(=O)[C@H](CCCNC(=N)N)NC(=O)[C@@H](NC(=O)[C@H](CCCCN)NC(=O)[C@H](CCC(=O)O)NC(=O)[C@H](CCCNC(=N)N)NC(=O)CNC(=O)[C@H](CCC(=O)O)NC(=O)[C@H](CC(C)C)NC(C)=O)C(C)C)[C@@H](C)CC)C(=O)N[C@@H](CO)C(=O)N[C@H](C(=O)N[C@@H](Cc1c[nH]c2ccccc12)C(=O)N[C@@H](CO)C(=O)NC(C)(C)C(=O)N[C@@H](CCCNC(=N)N)C(=O)N[C@@H](CCCCN)C(=O)N[C@@H](CCCCNC(C)=O)C(N)=O)[C@@H](C)O)C(=O)O)C(=O)O)C(=O)O)C(=O)O [compound 59] (Ac-LEGREKVRAK(Ac)I[Aib][Aib]EGK([Suc-X12])STWS[Aib]RKK(Ac)-NH2)
4 |  | 98 | CCCCCCCCCCCCCCCCCC(=O)N[C@@H](CCC(=O)N[C@@H](CCC(=O)N[C@@H](CCC(=O)NCCCOCCOCCOCCCNC(=O)CCC(=O)NCCCOCCOCCOCCCNC(=O)CCC(=O)NCCCOCCOCCOCCCNC(=O)CCC(=O)NCCCOCCOCCOCCCNC(=O)CCC(=O)NCCCC[C@H](NC(=O)CNC(=O)[C@H](CCC(=O)O)NC(=O)C(C)(C)NC(=O)C(C)(C)NC(=O)[C@@H](NC(=O)[C@H](CCCCNC(C)=O)NC(=O)[C@H](C)NC(=O)[C@H](CCCNC(=N)N)NC(=O)[C@@H](NC(=O)[C@H](CCCCN)NC(=O)[C@H](CCC(=O)O)NC(=O)[C@H](CCCNC(=N)N)NC(=O)CNC(=O)[C@H](CCC(=O)O)NC(=O)[C@H](CC(C)C)NC(C)=O)C(C)C)[C@@H](C)CC)C(=O)N[C@@H](CO)C(=O)N[C@H](C(=O)N[C@@H](Cc1c[nH]c2ccccc12)C(=O)N[C@@H](CO)C(=O)NC(C)(C)C(=O)N[C@@H](CCCNC(=N)N)C(=O)N[C@@H](CCCCN)C(=O)N[C@@H](CCCCNC(C)=O)C(N)=O)[C@@H](C)O)C(=O)O)C(=O)O)C(=O)O [compound 58] (Ac-LEGREKVRAK(Ac)I[Aib][Aib]EGK([Suc-X16])STWS[Aib]RKK(Ac)-NH2)
5 | 3.2 | 90 | CCCCCCCCCCCCCCCC(=O)N[C@@H](CCC(=O)N[C@@H](CCC(=O)N[C@@H](CCC(=O)NCCCOCCOCCOCCCNC(=O)CCC(=O)NCCCOCCOCCOCCCNC(=O)CCC(=O)NCCCOCCOCCOCCCNC(=O)CCC(=O)NCCCC[C@H](NC(=O)CNC(=O)[C@H](CCC(=O)O)NC(=O)C(C)(C)NC(=O)C(C)(C)NC(=O)[C@@H](NC(=O)[C@H](CCCCNC(C)=O)NC(=O)[C@H](C)NC(=O)[C@H](CCCNC(=N)N)NC(=O)[C@@H](NC(=O)[C@H](CCCCN)NC(=O)[C@H](CCC(=O)O)NC(=O)[C@H](CCCNC(=N)N)NC(=O)CNC(=O)[C@H](CCC(=O)O)NC(=O)[C@H](CC(C)C)NC(C)=O)C(C)C)[C@@H](C)CC)C(=O)N[C@@H](CO)C(=O)N[C@H](C(=O)N[C@@H](Cc1ccccc1)C(=O)N[C@H](CO)C(=O)N[C@@H](CCCCN)C(=O)N[C@@H](CCCNC(=N)N)C(=O)N[C@@H](C)C(=O)N[C@@H](CCCCNC(C)=O)C(N)=O)[C@@H](C)O)C(=O)O)C(=O)O)C(=O)O [compound 14] (Ac-LEGREKVRAK(Ac)I[Aib][Aib]EGK([Suc-X1])STF[dS]KRAK(Ac)-NH2)
6 |  | 95 | CCCCCCCCCCCCCCCC(=O)N[C@@H](CCC(=O)N[C@@H](CCC(=O)N[C@@H](CCC(=O)NCCCOCCOCCOCCCNC(=O)CCC(=O)NCCCOCCOCCOCCCNC(=O)CCC(=O)NCCCOCCOCCOCCCNC(=O)CCC(=O)NCCCC[C@H](NC(=O)CNC(=O)[C@H](CCC(=O)O)NC(=O)C(C)(C)NC(=O)C(C)(C)NC(=O)[C@@H](NC(=O)[C@H](CCCCNC(C)=O)NC(=O)C(C)(C)NC(=O)[C@H](CCCNC(=N)N)NC(=O)[C@@H](NC(=O)[C@H](CCCCN)NC(=O)[C@H](CCC(=O)O)NC(=O)[C@H](CCCNC(=N)N)NC(=O)CNC(=O)[C@H](CCC(=O)O)NC(=O)[C@H](CC(C)C)NC(C)=O)C(C)C)[C@@H](C)CC)C(=O)N[C@@H](CO)C(=O)N[C@H](C(=O)N[C@@H](Cc1c[nH]c2ccccc12)C(=O)N[C@@H](CO)C(=O)NC(C)(C)C(=O)N[C@@H](CCCNC(=N)N)C(=O)N[C@@H](CCCCN)C(=O)N[C@@H](CCCCNC(C)=O)C(N)=O)[C@@H](C)O)C(=O)O)C(=O)O)C(=O)O [compound 82] (Ac-LEGREKVR[Aib]K(Ac)I[Aib][Aib]EGK([Suc-X1])STWS[Aib]RKK(Ac)-NH2)
7 | 0.6 | 98 | CCCCCCCCCCCCCCCC(=O)N[C@@H](CCC(=O)N[C@@H](CCC(=O)N[C@@H](CCC(=O)N[C@@H](CCC(=O)NCCCOCCOCCOCCCNC(=O)CCC(=O)NCCCOCCOCCOCCCNC(=O)CCC(=O)NCCCOCCOCCOCCCNC(=O)CCC(=O)NCCCC[C@H](NC(=O)CNC(=O)[C@H](CCC(=O)O)NC(=O)C(C)(C)NC(=O)C(C)(C)NC(=O)[C@@H](NC(=O)[C@H](CCCCNC(C)=O)NC(=O)[C@H](C)NC(=O)[C@H](CCCNC(=N)N)NC(=O)[C@@H](NC(=O)[C@H](CCCCN)NC(=O)[C@H](CCC(=O)O)NC(=O)[C@H](CCCNC(=N)N)NC(=O)CNC(=O)[C@H](CCC(=O)O)NC(=O)[C@H](CC(C)C)NC(C)=O)C(C)C)[C@@H](C)CC)C(=O)N[C@@H](CO)C(=O)N[C@H](C(=O)N[C@@H](Cc1c[nH]c2ccccc12)C(=O)N[C@@H](CO)C(=O)NC(C)(C)C(=O)N[C@@H](CCCNC(=N)N)C(=O)N[C@@H](CCCCN)C(=O)N[C@@H](CCCCNC(C)=O)C(N)=O)[C@@H](C)O)C(=O)O)C(=O)O)C(=O)O)C(=O)O [compound 62] (Ac-LEGREKVRAK(Ac)I[Aib][Aib]EGK([Suc-X13])STWS[Aib]RKK(Ac)-NH2)
